How the values were obtained:
R6/2 mice [1] = experiment: Neuronal death in R6/2 mice brain (NeuN immunofluorescence staining, Western blotting); assay type: in vivo; conditions: 10 mg/kg oral gavage daily
Protocol: (§1) FIG. 3A: The numbers of neurons (identified by the expression of NeuN; green color) and the level of mutant huntingtin (red color) in the striatum of the mice were analyzed by confocal microscope. Nuclei were stained with Hoechst (blue color).
(§2) The method was according to the previous report. In brief, brain sections were incubated overnight with anti-lba-I polyclonal antibody (1:500), anti-NeuN polyclonal antibody (1:500), anti-NLRP3 monoclonal antibody (1:200) or anti-EM48 monoclonal antibody (1:500) in PBS containing 5% normal goat serum at 4° C. and then incubated with the corresponding secondary antibody for 2 h at room temperature. Nuclei were stained with Hoechst 33258. Slides were mounted and analyzed with a laser confocal microscope.
The present example further investigates the effect of Antcin H in the neuronal death of R6/2 mice brains by immunofluorescence staining. […] R6/2 mice or WT mice were treated with AH (10 mg/kg of body weight) or vehicle by oral gavage daily starting from the age of 7 weeks to the age of 12 weeks. WT-Vehicle: n=6; WT-AH: n=6; R6/2-vehicle: n=6; R6/2-AH: n=6. The data are presented as the mean±SEM. Label “a” in chart means p<0.05, between WT and R6/2 mice. Label “b” in chart means p<0.05 vs. vehicle-treated R6/2 mice.

STHdh^Q109 cells [2] = experiment: Cell viability analysis (CCK-8 assay) in a cell model of HD; assay type: cell-based, mice; conditions: 24 h, vs vehicle-treated cells
Source text: (§3) Conditionally immortalized wild-type STHdh^Q7 striatal neuronal progenitor cells expressing endogenous normal htt (referred to as wild-type striatal cells), and homozygous mutant STHdh^Q109 striatal neuronal progenitor cells from homozygous STHdh^Q109 knock-in mice expressing mutant htt with 109 glutamines (referred to as mutant striatal cells). STHdh^Q7 and STHdh^Q109 cells were generous gifts from Dr. Elena Cattaneo and Marta Valenza (Department of pharmacological sciences and center for stem cell research, University of Milano, Italy). These cells were maintained in an incubation chamber at 33° C. in Dulbecco's modified Eagle's medium supplemented with 10% fetal bovine serum.
STHdh^Q7 and STHdh^Q109 cells were treated with 5 or 10 μM Antcin H or vehicle (DMSO) for 24 h. STHdh^Q7 and STHdh^Q109 cells viability was quantified by the CCK-8 assay. The survival rate of the indicated cells was normalized to those survival rate of vehicle-treated STHdh^Q7 cells.
To investigate the neuroprotective potential of Antcin H in CNS disease, the present example used striatal cell line as an in vitro model of Huntington's disease. STHdh^Q109 cells carry the polyQ-expanded mouse gene Htt, which encodes 109 CAG repeats in the Htt gene. Compared with STHdh^Q109 cells, the control cell line (STHdh^Q7) only carry 7 copies of the CAG repeat. […]

J774A.1 macrophages = experiment: ATP-induced intracellular ROS (CM-H2DCFDA) in LPS-primed J774A.1 macrophages; assay type: cell-based; conditions: 1 μg/ml LPS 5 h, 50 μM Antcin H 0.5 h, 5 mM ATP 0-60 min
Protocol: (§4) FIG. 6A: J774A.1 macrophages were treated with or without 1 μg/ml LPS for 5 h, followed by treated with or without Antcin H for 0.5 h. Cells were then activated by 5 mM ATP for 0.5 h; FIG. 6B: J774A.1 macrophages were treated with or without 1 μg/ml LPS for 5 h, followed by treated with or without 50 μM Antcin H for 0.5 h. Cells were then activated by 5 mM ATP for 0-60 min.
(§5) STHdh^Q7 and STHdh^Q109 cells were treated with 5 or 10 μM Antcin H or vehicle (DMSO) in the presence of 10 μM intracellular ROS indicator fluorescent probe CM-H2DCFDA (Molecular Probes, Inc., Eugene, Oregon, USA) for 1 h. Intracellular ROS (Reactive Oxygen Species) levels were measured by detecting the fluorescence intensity (Excitation/Emission: 488 nm/510 nm) using a fluorescence plate reader (Fluoroskan Ascent; Thermo Electron Corporation, Woburn, MA, USA). J774A.1 macrophages were treated with or without 1 μg/ml LPS for 5 h, followed by treated with or without 50 μM Antcin H for 0.5 h. […] The levels of intracellular ROS were measured by CM-H2DCFDA staining and detected by a fluorescence plate reader.
In addition, ROS is one of the crucial elements for NLRP3 inflammasome activation (Tschopp and Schroder, 2010). […] The levels of intracellular ROS were measured by CM-H2DCFDA staining and detected at an excitation wavelength of 488 nm and an emission wavelength of 510 nm on a […]. […]

activated microglia = experiment: lba-1 immunofluorescence staining for activated microglia in striatum of R6/2 mice; assay type: in vivo; conditions: 10 mg/kg oral gavage daily, age 7 to 12 weeks, vs vehicle-treated R6/2 mice
Protocol: (§6) FIG. 4A: The numbers of activated microglia in the striatum were identified by lba1 staining (green color), and the numbers of NLRP3 positive cells in the striatum were identified by NLRP3 staining (red color). Nuclei were stained with Hoechst (blue color).
as §2
(§7) HD commonly associated with inflammation in nervous system and activated microglia. […] FIG. 4 show Antcin H reduced NLRP3 expression in microglia of R6/2 mice. R6/2 mice or WT mice were treated with AH (10 mg/kg of body weight) or vehicle by oral gavage daily starting from the age of 7 weeks to the age of 12 weeks. WT-Vehicle: n=6; WT-AH: n=6; R6/2-vehicle: n=6; R6/2-AH: n=6. The data are presented as the mean±SEM. Label “a” in chart means p<0.05, between WT and R6/2 mice. Label “b” in chart means p<0.05 vs. vehicle-treated R6/2 mice.

STHdh^Q109 cells [3] = experiment: Intracellular ROS analysis (CM-H2DCFDA) in a cell model of HD; assay type: cell-based, mice; conditions: 5 or 10 μM Antcin H, H2DCFDA staining
Source text: as §3
as §5, with “reader. […]” for “reader.”

[4] = test system: NLRP3 inflammasome in J774A.1 macrophages; experiment: IL-1β ELISA in LPS-primed, ATP-activated J774A.1 macrophages; assay type: cell-based; conditions: 1 μg/ml LPS 5 h, Antcin H 0.5 h, 5 mM ATP 0.5 h
Protocol: as §4
(§8) BV2 microglia were treated with or without 1 μg/ml LPS for 5 h, followed by treated with or without 1 or 5 μM Antcin H for 0.5 h. Cells were then activated by 1 mM ATP for 24 h. The IL-1β levels in the supernatants were measured by ELISA, and the levels of iNOS and NLRP3 in the cell lysates were measured by Western blotting. J774A.1 macrophages were treated with or without 1 μg/ml LPS for 5 h, followed by treated with or without Antcin H for 0.5 h. Cells were then activated by 5 mM ATP for 0.5 h. The IL-1β levels in the supernatants were measured by ELISA.

R6/2 mice [5] = experiment: Disease progression of R6/2 transgenic mouse model of HD (body weight, rotarod, survival, clasping); assay type: in vivo; conditions: 10 mg/kg oral gavage daily
Protocol: R6/2 mice or wild-type mice were treated with Antcin H (10 mg/kg of body weight) or vehicle by oral gavage daily starting from the age of 7 weeks to the age of 12 weeks. Mice were tested on a Rotarod apparatus three times a week. Motor coordination was assessed using a rotarod apparatus assay (UGO BASILE, Comerio, Italy) at a constant speed (12 rpm) over a period of 2 min. The body weight and the lifespan were monitored weekly.
To investigate the therapeutic potential of Antcin H in the pathogenesis of Huntington's disease, R6/2 mice were used as an animal model of HD. R6/2 mice or wild-type mice were treated with Antcin H (10 mg/kg of body weight) or vehicle by oral gavage daily starting from the age of 7 weeks to the age of 12 weeks. […] WT-Vehicle: n=10; WT-AH: n=10; R6/2-vehicle: n=8; R6/2-AH: n=10. The data are presented as the mean±SEM. Label “a” in chart means p<0.05, between WT and R6/2 mice. Label “b” in chart means p<0.05 vs. R6/2-vehicle.

NLRP3 = NLRP3 immunofluorescence staining in striatum of R6/2 mice; assay type: in vivo; conditions: 10 mg/kg oral gavage daily, age 7 to 12 weeks, vs vehicle-treated R6/2 mice
Protocol: as §6, §2, §7

[6] = test system: NLRP3 inflammasome in BV2 microglia; experiment: IL-1β ELISA in LPS-primed, ATP-activated BV2 microglia; assay type: cell-based; conditions: 1 μg/ml LPS 5 h, 1 or 5 μM Antcin H 0.5 h, 1 mM ATP 24 h
Protocol: as §8
(§9) Microglia are macrophage-like immune cells of the central nervous system. […] (Subhramanyam et al., 2019). In addition, overexpressed IL-1β, the end-product of the NLRP3 inflammasome, plays important roles in the development of many diseases including neurodegenerative diseases (Siew et al., 2019). NLRP3 inflammasome composed of NLRP3, ASC and caspase-1 and controls the maturation and release of IL-1β. NLRP3 inflammasome can be activated by medical relevant stimuli such as ATP from damage tissues and amyloid-β of Alzheimer's disease (Guo et al., 2015). […] BV2 microglia were treated with or without 1 μg/ml LPS for 5 h, followed by treated with or without 1 or 5 μM Antcin H for 0.5 h. Cells were then activated by 1 mM ATP for 24 h. The data are presented as the mean±SEM from three independent experiments. […]

mutant huntingtin (mHtt) = experiment: mHtt aggregation in striatum of R6/2 mice (confocal microscope, filter retardation assay); assay type: in vivo; conditions: 10 mg/kg oral gavage daily, age 7 to 12 weeks, confocal intensity and filter retardation assay
Protocol: as §1
Brain tissues will be suspended and homogenized in ice-cold RIPA buffer (50 mM Tris-HCl, 0.25% sodium deoxycholate, 1% Triton X-100, 150 mM NaCl, 1 mM phenylmethylsulfonyl fluoride, 1 mM Na3VO4, 0.5 mg/mL aprotinin, 0.1 mM leupeptin, and 4 mM pepstatin), mixed with 2% SDS, and applied to OE66 membrane filters ([…]; Whatman Schleicher and Schuell, Middlesex, UK) through a slot-blot manifold (Bio-Rad, Irvine, CA, USA). The blots will be blocked with 5% skim milk in PBS and incubated overnight with an anti-EM48 antibody (1:500; Millipore Bioscience Research Reagents, Temecula, CA, USA) at 4° C., followed by incubation with the corresponding secondary antibody for 1 h at RT. The immunoreactive bands will be detected by ECL (Pierce, Rockford, IL, USA) and recorded using Kodak XAR-5 film.
The method was according to the previous report. […] Slides were mounted and analyzed with a laser confocal microscope. […]

BV2 microglia = experiment: iNOS and NLRP3 Western blotting in LPS and ATP activated BV2 microglia; assay type: cell-based; conditions: 1 μg/ml LPS 5 h, 1 or 5 μM Antcin H 0.5 h, 1 mM ATP 24 h
Protocol: as §8, §9

[7] = age 7 to 12 weeks, vs vehicle-treated R6/2 mice

C=C(CCC(=C)[C@H]1CCC2C3=C(C(=O)[C@H](O)[C@@]21C)[C@@]1(C)CC[C@@H](O)[C@@H](C)C1CC3=O)C(C)C(=O)O (some centres unmarked) [Antcin H]
neuronal cells number in the brain (NeuN, confocal microscope) (R6/2 mice [1]; [7]): significant increased
NeuN protein expression in the brain (Western blotting) (R6/2 mice [1]; brain lysates at age of 12 weeks): increasing expression of NeuN protein
cell survival ratio (CCK-8 assay) (STHdh^Q109 cells [2]; 5 μM Antcin H): higher survival ratio then vehicle-treated cells
cell survival ratio (CCK-8 assay) (STHdh^Q109 cells [2]; 10 μM Antcin H): higher survival ratio then vehicle-treated cells
ATP-induced ROS production (J774A.1 macrophages): significantly reduced ATP-induced ROS production
number of lba-1 positive cells in striatum (activated microglia): decreased
intracellular ROS levels (STHdh^Q109 cells [3]): significantly reduced the intracellular ROS levels
ATP-induced IL-1β secretion (IL-1β levels in the supernatants, ELISA) [4]: inhibited by Antcin H (FIG. 6A) in a dose-dependent manner
rotarod performance (latency to fall) (R6/2 mice [5]; age 7 to 12 weeks, 12 rpm, 2 min): increased latency to fall
body weight (R6/2 mice [5]; [7]): higher weekly weight gain
survival rate (R6/2 mice [5]; at 12 weeks of age): 100%
clasping score (R6/2 mice [5]; at 12 weeks of age, vs vehicle-treated R6/2 mice): lower clasping score
number of NLRP3 positive cells in striatum (NLRP3): significantly reduced the number of NLRP3 positive cells
ATP-induced IL-1β expression (IL-1β levels in the supernatants, ELISA) [6]: reduced ATP-induced IL-1β expression
mutant huntingtin aggregation in the striatum (mutant huntingtin (mHtt)): reduced the mutant huntingtin aggregation
expression level of NLRP3, Western blotting (BV2 microglia): reduced the expression levels
expression level of inducible nitric oxide synthase (iNOS), Western blotting (BV2 microglia): reduced the expression levels
